From PMC11887212 (Journal of Hematology & Oncology, 2025)

Biological target: sorcin (Homo sapiens, UniProt P30626)
Assay: SPR
Assay type: binding

sorcin, sequence (P30626 whole entry): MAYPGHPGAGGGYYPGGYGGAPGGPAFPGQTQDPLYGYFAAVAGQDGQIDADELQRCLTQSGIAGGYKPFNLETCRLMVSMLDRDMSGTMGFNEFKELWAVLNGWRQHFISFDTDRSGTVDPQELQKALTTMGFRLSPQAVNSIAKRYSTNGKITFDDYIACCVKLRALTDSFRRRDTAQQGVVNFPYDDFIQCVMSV

Question: How did the Kd turn out when `CC1=C(O)C(=O)C=C2C1=CC=C1[C@@]2(C)CC[C@@]2(C)[C@@H]3C[C@](C)(C(=O)O)CC[C@]3(C)CC[C@]12C` [compound 1, celastrol] was run?
Answer: 2130 nM
